# Assay results published in US20240383906A1, “5-SUBSTITUTED PYRIDINE-2(1H)-KETONE COMPOUND AND USE THEREOF” (JIANGSU KANION PHARMACEUTICAL CO., LTD., priority 2021, published 2024).
# What was measured:
# [1] = test system: HuPrime® gastric cancer GA3055 subcutaneous xenograft model; test: In vivo drug efficacy in HuPrime gastric cancer GA3055 subcutaneous xenograft model; parameters: species or system female BALB/C nude mice; details: BID
# Excerpt: • GA3055 tumor-bearing mice were provided by Crown Bioscience (Taicang) Co., Ltd.
# Tumor tissue was collected from tumor-bearing mice of the HuPrime® gastric cancer GA3055 xenograft model, and cut into tumor pieces with a diameter of 2 to 3 mm for subcutaneous inoculation in the right anterior scapular region of BALB/c nude mice. When the average tumor volume in the tumor-bearing mice reached approximately 150 mm^3, the mice were randomly grouped. The coefficient of variation (CV) of the tumor volume within each group was calculated using the formula CV=SD/MTV×100%, and should be less than 30%. Administration started on the day of grouping (the tumor volume was measured on the day of grouping). The day of grouping was defined as day 0.
# Before the start of administration, all animals were weighed and the tumor volume was measured using a caliper. Given that the volume of the tumor could affect the effectiveness of the treatment, a random grouping design method was used. The mice were grouped based on the volume of their tumors to ensure similar tumor volumes across different groups. Grouping was done using StudyDirector™ (version 3.1.399.19, supplier: Studylog System, Inc., S. San Francisco, CA, USA).
# The “Matched distribution” random grouping method was chosen for grouping, which could reflect the smallest intergroup differences at the tumor volume level. This algorithm matched the individual measurements of all selected animals with the average value of all selected animals. Firstly, those paired animals whose average values were close to the average value of all selected animals were chosen, and then they were allocated to groups so that the average value of the group matched (or was as close as possible to) the average value of all selected animals. The final average value of the measurements of each group was as close as possible to the final average value of the other groups.
# After the inoculation of tumor cells, routine monitoring included the growth of the tumor and the impact of the treatment on the normal behavior of the animals. Specific content included the activity of the experimental animals, food and water intake, weight gain or loss, and any abnormalities in their eyes, fur, and other conditions. Any clinical symptoms observed during the experiment were recorded in the original data. After the start of administration, the weight of the mice and the size of the tumor were measured twice a week. […] The original data was directly imported into the software after being measured by a balance and caliper, and any changes in the data were recorded in this software. […]
# All experimental results were expressed as the mean tumor volume±SEM (standard error of the mean). […] All data were analyzed using SPSS 18.0. […]
# [2] = test system: WNT pathway STF reporter gene; test: Super-Top-Flash (STF) reporter gene inhibitory activity test; assay type: cell-based; details: HEK293 STF and L wnt3A cells 1:1, 24 hours, Bright-Glo
# Experimental: HEK293 STF and L wnt3A cells were provided by Wuhan Heyan Biomedical Technology Co., Ltd., and Bright Glo was purchased from Promega.
# • HEK293 STF and L wnt3A cells were seeded in a white 96-well plate at a ratio of 1:1, with 80 μL of cell suspension per well, each containing 20,000 HEK293 STF cells and 20,000 L wnt3A cells. The cell plate was placed in a carbon dioxide incubator for overnight culture.
# The test compounds were 5-fold diluted with a multi-channel pipette to the 8th concentration, i.e., diluted from 400 μM to 5.12 nM, and duplicate experiment was set. 78 μL of culture medium was added to an intermediate plate, and then 2 μL of gradient diluted compound per well was transferred to the intermediate plate according to the corresponding position. After mixing well, the compound was transferred to the cell plate at 20 μL per well. The cell plate was placed in a carbon dioxide incubator and cultured for 24 hours.
# 100 μL of Promega Bright-Glo reagent was added to each well of the cell plate, and it was incubated at room temperature for 10 minutes to stabilize the luminescent signal. A multimode microplate reader was used for reading.
# Using the raw data from the multimode microplate reader, the IC50 value could be obtained through curve fitting. Table 10 provides the data on the inhibitory activity of the compounds of the present disclosure on the Wnt signaling pathway.
smiles,measurement,setting,value
Cn1cc(-c2cnc(CNc3nccn4c(-c5cc(F)cc(F)c5)cnc34)cn2)ccc1=O [Compound 2],T/C %,"[1]; 5 mg/Kg, 37 days",12.97%
same,TGI %,"[1]; 5 mg/Kg, 37 days",94.6%
same,T/C %,[1]; 10 mg/Kg,10.89%
same,TGI %,[1]; 10 mg/Kg,96.8%
same,IC50,[2],0.23 nM
